Experiments:
Assay type in all cases: cell-based
[1] = test system: B-16 melanoma cells; assay: Visual Evaluation Test for Melanin Production Inhibition in Pigment Cells; design: key to Visual evaluation of melanin production inhibition (whiteness of cell sediment): −: The same as the solvent control (black); +: Slightly different from the solvent control (dark gray); ++: Apparently different from the solvent control (light gray); +++: Cells were not colored (white); conditions: for Visual evaluation of melanin production inhibition (whiteness of cell sediment): B-16 melanoma cells, four days
Description: In plastic culture flasks (25 cm^2), B-16 melanoma cells were seeded at 5×10^4 per flask, and cultured in DMEM (Dulbecco's Modified Eagle's Medium) containing 10% serum [Nippon Suisan Kaisha, Ltd, trade name] in the presence of 5% carbon dioxide at a temperature of 37° C. On the next day, each test sample diluted with ethanol was added at concentrations in the medium of 3.13, 6.25, 12.5, 25, and 50 ppm, and the cells were cultured for further four days. After the culturing was finished, the medium was removed, and the cells were rinsed with phosphate buffered solution (hereinafter, referred to as PBS). Then, the cells were detached from each flask by using trypsin-containing PBS, and were harvested from the cell suspension by centrifugation. After the obtained cells were rinsed once with PBS, the whiteness of the sediment was visually observed. Compounds 2A and 2B were used as comparative materials.
Activity: The activity was evaluated by using the following four grades. −: The same as the solvent control (black) +: Slightly different from the solvent control (dark gray) ++: Apparently different from the solvent control (light gray) +++: Cells were not colored (white)

[2] = test system: B-16 melanoma cells; assay: Quantification Test for Melanin Production Inhibition in Pigment Cells (melanin inhibition ratio); conditions: 6.25 ppm; for Melanin production inhibition ratio: B-16 melanoma cells, two days; for Melanin production-inhibitory activity compared with arbutin in the quantification test: comparison with arbutin
Description: (§1) In plastic culture flasks (25 cm^2), B-16 melanoma cells were seeded at 5×10^4 per flask, and cultured in DMEM containing 10% serum in the presence of 5% carbon dioxide at a temperature of 37° C. After culturing for three days, each test sample diluted with ethanol was added at a concentration in the medium of 6.25 ppm, and the cells were culture for further two days. After the culturing was finished, the medium was removed, and the cells were rinsed with phosphate buffered solution (hereinafter referred to as PBS). Then, the cells were detached from each flask by using trypsin-containing PBS, and harvested from the cell suspension by centrifugation. To the obtained cells, 2 ml of DMEM was added, and the cells were dispersed by gentle pipetting. Of the DMEM, 100 μl was diluted with DMEM to achieve 1×10^4 to 5×10^5 cells/ml. Then, the number of the cells was counted with Scepter™ 2.0 automated cell counter (Merck Millipore), and the cell growth ratio was determined. The cell growth ratio was determined by the following formula.
The rest of the cell suspension was again centrifuged, and the medium was removed. After that, an operation in which the cells were rinsed with 1 ml of very cool 5% trichloroacetic acid and centrifuged was repeated three times, and further the cells were rinsed twice by adding 1 ml of ethanol/ethyl ether (3:1 volume ratio) and centrifuged. Finally, the cells were rinsed once with 1 ml of ethyl ether, centrifuged, and air-dried over night. To the dried cells, 2 N NaOH was added, and melanin in the cells was dissolved in a water bath of 60° C. After cooling, the absorbance at 415 nm was measured by using a microplate reader (BIO-RAD MICROPLATE READER Benchmark-). From the measured value, the amount of melanin per 10^6 cells was calculated by conversion using a standard curve obtained by using synthesized melanin (NACALAI TESQUE, INC.), and the melanin inhibition ratio was determined. The melanin inhibition ratio was determined by the following formula:
Melanin inhibition ratio (%)=[(amount of melanin of control−amount of melanin of sample)/(amount of melanin of control)]×100

[3] = test system: B-16 melanoma cells; assay: Cell growth ratio in the quantification test (cell count); conditions: 6.25 ppm, two days, relative to control
Description: as §1
Cell growth ratio (%)=(number of cells of sample/number of cells of control)×100

| Molecule | Visual evaluation of melanin production inhibition (whiteness of cell sediment) ([1]; 3.13 ppm in medium) | Visual evaluation of melanin production inhibition (whiteness of cell sediment) ([1]; 6.25 ppm in medium) | Visual evaluation of melanin production inhibition (whiteness of cell sediment) ([1]; 12.5 ppm in medium) | Activity compared with arbutin in the visual evaluation test ([1]; comparison with arbutin) | Melanin production inhibition ratio [2] | Melanin production-inhibitory activity compared with arbutin in the quantification test [2] | Cell growth ratio [3] | Visual evaluation of melanin production inhibition (whiteness of cell sediment) ([1]; 25 ppm in medium) | Activity compared with arbutin in the visual evaluation test at 6.25 ppm ([1]; 6.25 ppm, comparison with arbutin) | Visual evaluation of melanin production inhibition (whiteness of cell sediment) ([1]; 50 ppm in medium) |
| --- | --- | --- | --- | --- | --- | --- | --- | --- | --- | --- |
| 2-isopropyl-5-methylcyclohexanols [Compound 1H] | + | ++ | +++ | almost the same activity as that of arbutin | 49.0% | higher melanin production-inhibitory activity than arbutin | 102.1% |  |  |  |
| CC(C)[C@@H]1CC[C@@H](C)C[C@@H]1O (relative stereo) [Compound 1I, (1S*,2S*,5R*)-2-isopropyl-5-methylcyclohexanol] |  | + | +++ |  |  |  |  |  |  |  |
| CC(C)[C@H]1CC[C@@H](C)C[C@@H]1O (relative stereo) [Compound 1J, (1S*,2R*,5R*)-2-isopropyl-5-methylcyclohexanol] |  | + | +++ |  |  |  |  |  |  |  |
| CC(C)[C@H]1CC[C@@H](C)C[C@H]1O (relative stereo) [Compound 1K, (1R*,2R*,5R*)-2-isopropyl-5-methylcyclohexanol] |  | + | +++ |  |  |  |  |  |  |  |
| OC[C@H]1O[C@@H](Oc2ccc(O)cc2)[C@H](O)[C@@H](O)[C@@H]1O [Arbutin, arbutin, reference compound] | + | ++ | +++ |  | 35.5% |  | 94.1% |  |  |  |
| C=C(C)[C@@H]1CC[C@@H](C)C[C@H]1O [Compound 1A, (1R,2S,5R)-5-methyl-2-isopropenylcyclohexanol] |  | − | ++ |  |  |  |  | +++ |  |  |
| CC1CCC(C(C)C)C(OCC(O)CO)C1 (stereo not shown) [Compound 1B, 3-(2-isopropyl-5-methylcyclohexyloxy)propane-1,2-diol] | + | ++ |  |  | 37.0% | higher melanin production-inhibitory activity than arbutin | 93.2% |  |  |  |
| CC1CCC(C(C)C)C(OCCCO)C1 (stereo not shown) [Compound 1C, 3-(2-isopropyl-5-methylcyclohexyloxy)propan-1-ol] | − | ++ | +++ | almost the same activity as that of arbutin | 52.0% | higher melanin production-inhibitory activity than arbutin | 103.1% |  |  |  |
| CC(O)CC(=O)OC1CC(C)CCC1C(C)C (stereo not shown) [Compound 1D, 2-isopropyl-5-methylcyclohexyl 3-hydroxybutyrate] | − | ++ | +++ | almost the same activity as that of arbutin | 52.8% | higher melanin production-inhibitory activity than arbutin | 104.9% |  |  |  |
| CC1CCC(C(C)C)C(OCCOCCO)C1 (stereo not shown) [Compound 1E, 2-(2-(2-isopropyl-5-methylcyclohexyloxy)ethoxy)ethanol] | − | + | ++ |  | 23.3% |  | 96.4% |  |  |  |
| CC(O)COC1CC(C)CCC1C(C)C (stereo not shown) [Compound 1F, 1-(2-isopropyl-5-methylcyclohexyloxy)propan-2-ol] |  | ++ | +++ | almost the same activity as that of arbutin |  |  |  |  |  |  |
| CC(=O)CC(=O)OC1CC(C)CCC1C(C)C (stereo not shown) [Compound 1G, 2-isopropyl-5-methylcyclohexyl 3-oxobutyrate] | + | +++ | +++ |  | 41.5% | higher melanin production-inhibitory activity than arbutin | 87.8% |  | higher activity than arbutin |  |
| CCNC(=O)C1CC(C)CCC1C(C)C (stereo not shown) [Compound 2A, N-ethyl-5-methyl-2-isopropylcyclohexane carboxamide, reference compound] |  | − | + |  |  |  |  | ++ |  | +++ |
| CNC(=O)C(C)(C(C)C)C(C)C [Compound 2B, N,2,3-trimethyl-2-isopropylbutanamide, reference compound] |  |  |  |  |  |  |  | − |  | + |

From patent publication US20150087856A1, “MELANIN PRODUCTION INHIBITOR” (TAKASAGO INTERNATIONAL CORPORATION, priority 2012, published 2015)
